# Patent US8207137B2, “Method of inhibiting angiogenesis or invasion or formation of metastases” (INSERM, priority 2001, dated 2012)
# Assays:
# [1] = system: B16F10 cells; assay: Syngenic metastatic tumor model (pulmonary metastases); type: in vivo; conditions: C57B1/6 mice, B16F10 i.v.; AMEP expressed in muscle, doxycycline induction; after 7 days of treatment
# Excerpt: The cDNA of AMEP was subcloned at the Eco RV site of the vector pBi (Clonetech, Palo Alto, Calif., USA). The expression of the gene of interest in this vector was under the dependence of a promoter responding to tetracycline in an expression system involving the eukaryote gene Tet-On. The Tet-On vector expresses the transactivator rtTA (reverse tetracycline transcriptional activator) and the vector Tet-tTS expresses the silencer tTS (tetracycline transcriptional silencer). The purifications of the plasmids were performed in a manner such that no endotoxin was present (Maxi endo free Kit, Quiagen). The purified plasmid DNA was dissolved in endotoxin-free sterile 0.9% NaCl at the desired concentration.
# 20 μg of plasmid pBi-AMEP, 10 μg of plasmid Tet-off and 20 μg of plasmid Tet-on were dissolved in 30 μl of sterile 0.9% NaCl and injected into the tibia cranial muscle of nude or C57B1/6 mice aged 8 weeks and previously anesthetized by intraperitoneal inoculation of pentobarbital as described by Mir et al. (Mir et al., 1999). In brief, 8 electric shocks of 200 V/cm were applied for 20 ms at a frequency of 1 Hz, by means of an electrode to the mouse paw and containing two steel plates. The electrode was connected to an electropulsator PS-15 (Jouan, St Herblain, France). The same plasmids not containing the AMEP gene constituted the negative control. […]
# [2] = system: CPAE cells (calf pulmonary artery endothelial cells); assay: Adhesion of CPAE endothelial cells to fibrinogen, vitronectin and fibronectin; type: cell-based, bovine
# Description: First technique: punctual incubation of the endothelial cells with AMEP during the test.
# The CPAE were detached from the culture plates by incubation with 1.5 mM EDTA and resuspended at the rate of 5×10^5 cells/ml in the adhesion buffer (140 mM NaCl, 10 mM Hepes, 5 mM glucose, 5.4 mM KCl, 2 mM CaCl2, 1 mM MgCl2, 1 mM MnCl2, pH 7.4). […] Dutcher) that had been incubated in advance for one night at 4° C. with 50 μl of purified fibrinogen (40 μg/ml in PBS; Kabi), 10 μg/ml of vitronectin (Sigma); 30 μg/ml of fibronectin (Sigma) and 1% of BSA (bovine serum albumin) as negative control. After 20 minutes of incubation of the CPAE cells at 37° C., the plate was washed twice with 200 μl of adhesion buffer and the nonspecific sites were saturated with PBS supplemented with 1% of BSA for 1 hour at 37° C. The plate was then washed again twice with the adhesion buffer containing 1% of BSA. The nonadherent cells were eliminated by washing the wells three times with 200 μl of adhesion buffer plus 1% of BSA. Measurement of the phosphatase activity of the cells enabled quantification of the adherent cells. In brief, 100 μl of paranitrophenol phosphate (Sigma) at 3 mg/ml in the acetate buffer pH containing 0.1% of X100 Triton was added to the wells and incubated for 2 h at 37° C. The reaction was stopped by the addition of 1N NaOH. The release of paranitrophenol, which indicates the number of adherent cells, was measured after reading of the absorbance at 405 nm with an ELISA reader (Titertek Twinreader). […] The remainder of the protocol was identical to the that described above with the exception that no additional incubation of the cells with AMEP was performed.
# [3] = system: endothelial cells (CPAE); assay: Apoptosis and cell cycle by flow cytometry (Hoechst 33342 and annexin V); type: cell-based, bovine
# Description: Technique of specific vital staining of DNA with Hoechst 33342 (Sigma).
# The endothelial cells (CPAE) were trypsinated and the cell suspension was adjusted to 1·10^6 cells/ml. Hoechst 33342 dye was added at the rate of 20 μg/ml and the cells were incubated for three minutes at ambient temperature under agitation. The percentage of apoptotic cells was analyzed by a flow cytometer (FACS). The cells were then incubated for 30 minutes in darkness (37° C.) and analysis of the cell cycle was performed.
# Technique using annexin V (R and D system): A residue of 1·10^6 endothelial cells (CPAE) was resuspended in 1 ml of reaction buffer (100 μl of 10× binding buffer (100 mM Hepes/NaOH pH 7.4, 1.5 M NaCl, 50 mM KCl, 10 mM MgCl2, 18 mM CaCl2), 100 μl of propidium iodide (initial concentration 50 μg/ml), 10 μl of annexin V-FITC and 790 μl of deionized water. The suspension was incubated for 15 minutes in darkness at ambient temperature. The percentage of apoptotic cells was analyzed by flow cytometry.
# [4] = system: CPAE cells; assay: Model of endothelial cell migration (agarose, 24-well plates); type: cell-based, bovine
# Description: The migration model was implemented in 24-well plates. 1.5% agarose was dissolved in the culture medium to form a gel in the wells. Half of an agarose cylinder was then inserted in a well. The CPAE cells were added to the free space left in the well and cultured until their confluence. The piece of agarose was then removed to allow the cells to migrate and AMEP was added, at the desired concentrations, to the culture medium. Then, a transparent graph paper was placed under the plate to determine the migration rate of the cells using an ocular micrometer under reverse microscope. The experiments were performed in duplicate and repeated three times. The results were expressed in percentage in relation to the control.
# [5] = cells incubated punctually for 30 minutes prior to adhesion test, 1.4-kDa peptide 1 μg/ml, AMEP 10 μg/ml (comparable molar concentration)
# [6] = cells preincubated for 24 h, same molar concentration (AMEP 10 μg/ml, 1.4-kDa peptide 1 μg/ml)
substance,measurement,setting,value
"AMEP: disintegrin domain of human metargidin (Met-420 to Glu-511, SEQ ID NO. 2), 91 amino acids, 9.7 kDa; recombinant or expressed in vivo by gene electrotransfer",inhibition of the number of pulmonary metastases,[1],74.2%
same,inhibition of adhesion of endothelial cells on fibrinogen,[2]; [5],no significant effect
same,inhibition of adhesion of endothelial cells on vitronectin,[2]; [5],no significant effect
same,inhibition of adhesion of endothelial cells on fibrinogen,[2]; [6],30%
same,inhibition of adhesion of endothelial cells on fibronectin,[2]; [6],30%
same,inhibition of adhesion of endothelial cells on vitronectin,[2]; [6],30%
same,"% of apoptotic cells, Hoechst 33342 method","[3]; CPAE, AMEP 5 μg/ml, control 3.9 ± 1.1, mean±SEM",12.6 ± 3.7%
same,"% of apoptotic cells, Annexin-V method","[3]; CPAE, AMEP 5 μg/ml, control 4.6 ± 0.9, mean±SEM",12.8 ± 2.5%
same,modification of the cell cycle,"[3]; Hoechst 33342, not shown",no modification of the cell cycle
same,percentage of apoptotic cells multiplied by (factor versus control),"[3]; both methods (Hoechst 33342, annexin-V)",3
same,number of dead endothelial cells (floating in the culture medium),"[4]; 10 μg/ml, phase-contrast microscope (FIG. 3)",augmentation of the number of dead endothelial cells
same,inhibition of cell migration,"[4]; CPAE, 10 μg/ml",complete inhibition
same,effect on the displacement rate of the cells,"[4]; CPAE, 2-10 μg/ml",dose dependent
